As a reminder, the chromatographic logP is a lipophilicity value derived from retention on a column. High values mean a more lipophilic compound, low ones a more hydrophilic compound.

The nature of one data set: Log P by HPLC on reversed phase columns (EEC directive 79/831 Annex V.A8; methods [a], [b], [c]). The data set is classed as physicochemical.
Settings: not given
A digest of the protocol:
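Reversed-phase HPLC with LC-UV detection, 10→95% acetonitrile linear gradient; aqueous eluent 0.1% formic acid [a], 0.001 M ammonium acetate, neutral [b], or 0.1% phosphoric acid [c]. Calibrated against C3–C16 alkan-2-ones of known Log P by retention-time linear interpolation; multiple values within a method separated by "+".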
Regarding `CC(C)(C)C#Cc1ccc(C(O)(Cn2cncc2C#N)C2(F)CC2)c(F)c1` (stereo not drawn) [I-646], the LogP is 3.57^[a].

With `N#Cc1cncn1CC(O)(c1ccc(F)cc1Br)C1CCC1` (stereo not drawn) [I-449], the LogP was 2.86^[a].

As for `C/C=C(\C)C(O)(Cn1cncc1C#N)c1ccc(Cl)cc1F` (stereo not drawn) [I-397], the LogP was 2.73^[a].

In the case of `CC1(C(O)(Cn2cncc2C#N)c2ccc(F)cc2F)CC1` (stereo not drawn) [I-440], the LogP was 2.37^[a].

In the case of `N#Cc1cncn1CC(O)(C#Cc1ccc(Cl)cc1)C1(Cl)CC1` (stereo not drawn) [I-322], the LogP was 2.96^[a].

For `N#Cc1cncn1CC(O)(C=CCC(Cl)CCl)C1(F)CC1` (stereo not drawn) [I-680], the LogP was 2.44^[a].

On to `OC(Cn1cncc1Cl)c1ccc(Oc2ccc(Cl)nc2)cc1Cl` (stereo not drawn) [I-42], for which the LogP was 1.86^[a].

As for `N#Cc1cncn1CC(O)(c1ccc(Br)cc1Br)C1(F)CC1` (stereo not drawn) [I-433], the LogP was 2.71^[a].

`N#Cc1cncn1CC(O)(c1cc(Cl)cc(Cl)c1F)C1(F)CC1` (stereo not drawn) [I-572]: the LogP was 2.66^[a].

As for `Cc1ccc(C(C)(O)Cn2cncc2C#N)cc1` (stereo not drawn) [I-340], the LogP was 1.75^[a].

For `N#Cc1cncn1CC(O)(c1cc(F)c(F)c(F)c1)C1(F)CC1` (stereo not drawn) [I-500], the LogP is 2.34^[a].

Turning to `N#Cc1cncn1CC(O)(c1ccc(C#CC2CC2)cc1F)C1(F)CC1` (stereo not drawn) [I-643], the LogP is 2.92^[a].

For the compound `C[Si](C)(C)C#CC(O)(CC1CC1)Cn1cncc1C#N` (stereo not drawn) [I-454], the LogP is 2.70^[a].

For the compound `N#Cc1cncn1CC(O)(c1cc(Cl)c(F)cc1F)C1(Cl)CC1` (stereo not drawn) [I-586], the LogP was 2.61^[a].

Regarding `N#Cc1cncn1CC(O)(CC1CC1)c1cc(F)c(F)c(Cl)c1` (stereo not drawn) [I-492], the LogP is 2.71^[a].

On to `CCCC#Cc1ccc(C(O)(Cn2cncc2C#N)C2(Cl)CC2)c(F)c1` (stereo not drawn) [I-652], for which the LogP was 3.48^[a].

With `CC(O)(Cn1cncc1F)c1ccc(Oc2ccc(Cl)cc2)nc1F` (stereo not drawn) [I-214], the LogP is 1.98^[a].

As for `N#Cc1cncn1CC(O)c1ccc(Oc2ccc(Cl)nc2)cc1C(F)(F)F` (stereo not drawn) [I-10], the LogP is 2.59^[a].

Turning to `CC(C)(C)C#Cc1ccc(C(O)(Cn2cncc2C#N)C2(F)CC2)c(Cl)c1` (stereo not drawn) [I-642], the LogP was 3.83^[a].

With `N#Cc1cncn1CC(O)c1ccc(Oc2ccccc2)cc1F` (stereo not drawn) [I-99], the LogP was 2.54^[a].

In the case of `CC(C)(C)CC(O)(Cn1cncc1C#N)c1ccccc1F` (stereo not drawn) [I-274], the LogP was 2.92^[a].

Turning to `CC(O)(Cn1cncc1C(F)(F)F)c1ccc(Oc2ccc(I)cc2)cc1F` (stereo not drawn) [I-179], the LogP was 4.11^[a].

For `OC(Cn1cncc1Cl)c1ccc(Oc2ccccn2)cc1Cl` (stereo not drawn) [I-80], the LogP is 1.53^[a].

In the case of `OC(Cn1cncc1F)c1ccc(Oc2ccc(Br)nc2)nc1C(F)(F)F` (stereo not drawn) [I-155], the LogP was 1.75^[a].

With `N#Cc1cncn1CC(O)(c1ccc(Oc2ccc(Cl)cc2)cc1Cl)C1(Cl)CC1` (stereo not drawn) [I-391], the LogP is 3.78^[a].

Regarding `C[Si](C)(C)C#Cc1ccc(C(O)(Cn2cncc2C#N)C2(F)CC2)c(F)c1` (stereo not drawn) [I-608], the LogP is 3.79^[a].

Take `CC(O)(Cn1cncc1C#N)c1ccc(Oc2ccc(Br)cc2)cc1Br` (stereo not drawn) [I-219]: the LogP was 3.73^[a].

As to `COC(Cn1cncc1C#N)c1ccc(Oc2ccc(C(F)(F)F)cc2)cc1C(F)(F)F` (stereo not drawn) [I-67], the LogP is 4.27^[a].

Take `CC(O)(Cn1cncc1C#N)c1ccc(Oc2ccc(Cl)cc2)cc1C(F)(F)F` (stereo not drawn) [I-209]: the LogP is 3.51^[a].

In the case of `N#Cc1cncn1CC(O)(CC1CC1)c1ccc(Cl)c(F)c1` (stereo not drawn) [I-486], the LogP was 2.56^[a].

For `CCCC(O)(Cn1cncc1C#N)c1ccc(F)cc1Cl` (stereo not drawn) [I-402], the LogP is 2.73^[a].

For `N#Cc1cncn1CC(O)(c1cc(Cl)c(Cl)cc1Cl)C1(F)CC1` (stereo not drawn) [I-576], the LogP was 2.82^[a].

For the compound `OC(C#CC1CCCC1)(Cn1cncc1C(F)(F)F)C1(Cl)CC1` (stereo not drawn) [I-603], the LogP was 3.37^[a].

For `CC(O)(Cn1cncc1C#N)c1ccc(Oc2ccc(C(F)(F)F)cc2)nc1C(F)(F)F` (stereo not drawn) [I-312], the LogP was 3.25^[a].

As to `N#Cc1cncn1CC(O)(c1ccccc1Br)C1(Cl)CC1` (stereo not drawn) [I-255], the LogP is 2.37^[a].

In the case of `CC(=O)c1cncn1CC(C)(O)c1ccc(Oc2ccc(Br)cc2)cc1Cl` (stereo not drawn) [I-197], the LogP is 3.07^[a].

On to `CCCC(O)(Cn1cncc1C#N)c1ccc(F)cc1Br` (stereo not drawn) [I-408], for which the LogP was 2.75^[a].

As to `N#Cc1cncn1CC(O)(CC1CC1)c1ccc(F)cc1F` (stereo not drawn) [I-414], the LogP was 1.76^[a].

For `N#Cc1cncn1CC(O)(c1cnc(Cl)cc1Cl)C1(F)CC1` (stereo not drawn) [I-526], the LogP is 1.90^[a].

Take `N#Cc1cncn1CC(O)c1cnc(Oc2ccc(C(F)F)cc2)cc1C(F)(F)F` (stereo not drawn) [I-115]: the LogP is 2.80^[a].

Take `CC(C)C(O)(Cn1cncc1C#N)c1ccccc1C(F)(F)F` (stereo not drawn) [I-345]: the LogP was 2.46^[a].

`N#Cc1cncn1CC(O)c1ccccc1C(F)(F)F` (stereo not drawn) [I-150]: the LogP was 1.81^[a].

In the case of `CC(C)(C)CC(O)(Cn1cncc1C#N)c1ccccc1` (stereo not drawn) [I-242], the LogP is 2.77^[a].

Take `N#Cc1cncn1CC(O)(c1ccc(F)c(Br)c1F)C1(F)CC1` (stereo not drawn) [I-625]: the LogP is 2.35^[a].

In the case of `COC(Cn1cncc1F)c1ccc(Oc2ccc(Cl)cc2)cc1C(F)(F)F` (stereo not drawn) [I-108], the LogP is 3.16^[a].

In the case of `N#Cc1cncn1CC(O)(c1c(F)cccc1Cl)C1(F)CC1` (stereo not drawn) [I-434], the LogP is 2.08^[a].

On to `CC(O)(Cn1cncc1Cl)c1ccc(Oc2ccc(C(F)(F)F)cc2)cc1C(F)(F)F` (stereo not drawn) [I-196], for which the LogP is 3.01^[a].

On to `CC(C)(C)CC(O)(Cn1cncc1C#N)c1ccccc1Br` (stereo not drawn) [I-308], for which the LogP was 3.27^[a].

Turning to `C#Cc1ccc(C(O)(Cn2cncc2C#N)C2(Cl)CC2)c(Cl)c1` (stereo not drawn) [I-370], the LogP was 2.52^[a].

As for `COC(Cn1cncc1Br)c1ccc(Oc2ccc(Cl)cc2)cc1Br` (stereo not drawn) [I-50], the LogP was 3.59^[a].

As for `N#Cc1cncn1CC(O)(c1cc(F)c(F)cc1F)C1(F)CC1` (stereo not drawn) [I-521], the LogP was 2.18^[a].

In the case of `N#Cc1cncn1CC(O)(c1ccc(F)c(F)c1Cl)C1(F)CC1` (stereo not drawn) [I-636], the LogP was 2.25^[a].

On to `N#Cc1cncn1CC(O)(CCCC(Cl)CCl)C1(F)CC1` (stereo not drawn) [I-678], for which the LogP is 2.54'^[a].

For `N#Cc1cncn1CC(O)(CC1CC1)c1cc(Br)cc(Br)c1` (stereo not drawn) [I-498], the LogP is 2.99^[a].

With `N#Cc1cncn1CC(O)(c1c(F)cc(F)cc1Cl)C1(F)CC1` (stereo not drawn) [I-574], the LogP is 2.23^[a].

On to `N#Cc1cncn1CC(O)(c1ccc(F)cc1Cl)C1(F)CC1` (stereo not drawn) [I-349], for which the LogP was 2.22^[a].

For the compound `COC(C)(Cn1cncc1Br)c1ccc(Oc2ccc(Br)cc2)cc1C(F)(F)F` (stereo not drawn) [I-200], the LogP was 3.89^[a].

`N#Cc1cncn1CC(O)(CC1CC1)c1ccc(F)cc1Br` (stereo not drawn) [I-443]: the LogP is 2.78^[a].

Turning to `CC(O)(Cn1cncc1Cl)c1ccc(Oc2ccc(C(F)(F)F)cc2)cc1` (stereo not drawn) [I-161], the LogP was 2.51^[a].

As for `CC(O)(Cn1cncc1Cl)c1ccc(Oc2ccc(Cl)cc2)cc1C(F)(F)F` (stereo not drawn) [I-168], the LogP was 2.80^[a].

For the compound `N#Cc1cncn1CC(O)(CC1CC1)c1cnc(Cl)cc1Cl` (stereo not drawn) [I-510], the LogP is 2.07^[a].

Take `COC(Cn1cncc1Br)c1ccc(Oc2ccc(Br)cc2)cc1Br` (stereo not drawn) [I-51]: the LogP was 3.72^[a].

With `N#Cc1cncn1CC(O)c1ccc(Oc2ccc(Br)cc2)cc1F` (stereo not drawn) [I-48], the LogP was 3.04^[a].

As for `CCCC#Cc1ccc(C(O)(Cn2cncc2C#N)C2(F)CC2)c(Cl)c1` (stereo not drawn) [I-641], the LogP was 3.52^[a].

As to `N#Cc1cncn1CC(O)(c1cc(F)c(Cl)c(Cl)c1)C1(F)CC1` (stereo not drawn) [I-535], the LogP is 2.78^[a].

Regarding `CC(O)(Cn1cncc1F)c1cnc(Oc2ccc(Br)cc2)cc1C(F)(F)F` (single isomer, unassigned) [I-221], the LogP is 2.39^[a].

For `N#Cc1cncn1CC(O)c1cnc(Oc2ccc(C(F)(F)F)cc2)cc1Cl` (stereo not drawn) [I-127], the LogP was 2.96^[a].

With `N#Cc1cncn1CC(O)(c1ccc(F)c(F)c1Cl)C1(Cl)CC1` (stereo not drawn) [I-628], the LogP is 2.41^[a].

On to `CC(O)(Cn1cncc1C#N)c1ccc(Oc2ccc(Cl)cc2)cc1Br` (stereo not drawn) [I-216], for which the LogP was 3.50^[a].

On to `N#Cc1cncn1CC(O)c1ccc(Oc2ccc(Br)cn2)cc1Cl` (stereo not drawn) [I-70], for which the LogP is 2.63^[a].

With `COc1c(Cl)ccc(C(O)(Cn2cncc2C#N)C2(F)CC2)c1F` (stereo not drawn) [I-527], the LogP was 2.36^[a].

Consider `CCCC(C)C(O)(Cn1cncc1C#N)c1ccc(Cl)cc1Cl` (single isomer, unassigned) [I-315], for which the LogP was 3.63^[a].

With `OC(Cn1cncc1F)c1ccc(Oc2ccc(Br)cc2)nc1C(F)(F)F` (stereo not drawn) [I-103], the LogP is 2.28^[a].

On to `CCCC(O)(Cn1cncc1C#N)c1ccc(Cl)cc1C(F)(F)F` (stereo not drawn) [I-461], for which the LogP was 3.05^[a].

On to `CC(O)(Cn1cncc1Cl)c1cnc(Oc2ccc(Cl)cc2)cc1C(F)(F)F` (stereo not drawn) [I-175], for which the LogP was 2.62^[a].

Take `CC(C)C(O)(Cn1cncc1C#N)c1ccc(Cl)cc1Br` (stereo not drawn) [I-416]: the LogP was 3.02^[a].

For `CC(C)C(O)(Cn1cncc1C#N)c1ccc(F)cc1Cl` (stereo not drawn) [I-425], the LogP was 2.60^[a].

For `C#CCOC(Cn1cncc1F)c1ccc(Oc2ccc(Cl)cc2)cc1C(F)(F)F` (stereo not drawn) [I-106], the LogP is 3.26^[a].

In the case of `OC(Cn1cncc1Br)c1ccc(Oc2ccc(I)cc2)cc1Cl` (stereo not drawn) [I-28], the LogP was 2.88^[a].

Still in this data set, the particulars now being: HPLC on reversed phase columns, method [a].
With `C[Si](C)(C)C#CCOc1ccc(C(O)(Cn2cncc2C#N)C2(F)CC2)c(F)c1` (stereo not drawn) [I-415, 3-[2-(1-fluorocyclopropyl)-2-[2-fluoro-4-(3-trimethylsilylprop-2-ynoxy)phenyl]-2-hydroxy-ethyl]imidazole-4-carbonitrile], the chromatographic logP stood at 3.68.

Staying with this data set, now noted: reversed phase HPLC column; method [a]: LC-UV, acidic range, 0.1% formic acid in water and acetonitrile as eluent (linear gradient from 10% to 95% acetonitrile).
As for `COc1ccc(Oc2ccc(C(=O)Cn3cncc3Cl)c(Cl)n2)c(Cl)c1` [IX-24], the chromatographic logP came to 2.64.

The values above are taken from US20200031778A1, “NOVEL 5-SUBSTITUTED IMIDAZOLYLMETHYL DERIVATIVES” (Bayer CropScience Aktiengesellschaft, priority 2016, published 2020).
